The test system of the assay is L1210 leukemia ip in BDF1 mice, survival T/C. The assay can be described thus: NCI In Vivo Anticancer Drug Screen. Data for tumor model L1210 Leukemia (intraperitoneal) in B6D2F1 (BDF1) mice. To be noted: endpoint: mean survival time, higher = longer survival. In short, it runs like this:
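Tumor was transplanted into mice, which were then dosed with test compound or vehicle alone. Survival was recorded for each group, and the treated figure was expressed relative to the control figure.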

The mark [1] stands for this setting: dose: 100.0 mg/kg/injection, schedule: Q04DX003 (ip), vehicle: Klucel (hydroxypropylcellulose) (HPC).
Where [2] appears, read: dose: 200.0 mg/kg/injection, schedule: Q04DX003 (ip), vehicle: Klucel (hydroxypropylcellulose) (HPC).
The mark [3] stands for this setting: dose: 400.0 mg/kg/injection, schedule: Q04DX003 (ip), vehicle: Klucel (hydroxypropylcellulose) (HPC).
Setting [4] is: dose: 100.0 mg/kg/injection, schedule: Q01DX009 (ip), vehicle: saline.
The mark [5] stands for this setting: dose: 100.0 mg/kg/injection, schedule: Q04DX003 (ip), vehicle: saline.
Setting [6] is: dose: 200.0 mg/kg/injection, schedule: Q01DX009 (ip), vehicle: saline.
Setting [7] is: dose: 200.0 mg/kg/injection, schedule: Q04DX003 (ip), vehicle: saline.
[8] abbreviates: dose: 400.0 mg/kg/injection, schedule: Q01DX009 (ip), vehicle: saline.
Setting [9] is: dose: 400.0 mg/kg/injection, schedule: Q04DX003 (ip), vehicle: saline.
Setting [10] is: dose: 100.0 mg/kg/injection, schedule: Q01DX009 (ip), vehicle: saline with Tween-80.
Setting [11] is: dose: 200.0 mg/kg/injection, schedule: Q01DX009 (ip), vehicle: saline with Tween-80.
Setting [12] is: dose: 400.0 mg/kg/injection, schedule: Q01DX009 (ip), vehicle: saline with Tween-80.
[13] abbreviates: dose: 100.0 mg/kg/injection, schedule: Q01DX001 (ip), vehicle: saline.
Where [14] appears, read: dose: 200.0 mg/kg/injection, schedule: Q01DX001 (ip), vehicle: saline.
The mark [15] stands for this setting: dose: 400.0 mg/kg/injection, schedule: Q01DX001 (ip), vehicle: saline.
The mark [16] stands for this setting: dose: 50.0 mg/kg/injection, schedule: Q01DX001 (ip), vehicle: saline.
Where [17] appears, read: dose: 100.0 mg/kg/injection, schedule: Q01DX009 (ip), vehicle: Klucel (hydroxypropylcellulose) (HPC).
Setting [18] is: dose: 200.0 mg/kg/injection, schedule: Q01DX009 (ip), vehicle: Klucel (hydroxypropylcellulose) (HPC).

Several values for one entry are separate records, joined by “and”; a condition that tells them apart may be missing. Identical values can stand only once. Inconclusive results and toxic doses are left out.

With `O=C(c1ccccc1)C1C(C(=O)c2ccccc2)N1C1CCCCC1` (stereo unspecified), the T/C reads like this: under setting [1], 91 % of control; under setting [2], 91 % of control; under setting [3], 96 % of control.

Consider `O=C1OC(=O)C2C1C1(Cl)C(Cl)=C(Cl)C2(Cl)C2C(=O)OC(=O)C21` (stereo unspecified), for which the T/C reads like this: under setting [4], 94 % of control; under setting [5], 95 % of control; under setting [6], 90 % of control; under setting [7], 95 % of control; under setting [8], 91 % of control; under setting [9], 95 % of control.

For `CN(/N=C/c1ccccc1)C(=S)Nc1ccccc1`, the T/C runs as follows: (dose: 62.5 mg/kg/injection, schedule: Q04DX003 (ip), vehicle: Klucel (hydroxypropylcellulose) (HPC)) 100 % of control; (dose: 250.0 mg/kg/injection, schedule: Q04DX003 (ip), vehicle: Klucel (hydroxypropylcellulose) (HPC)) 103 % of control.

Consider `CC(C)CN(CC(C)C)[N+](=O)[O-]`, for which the T/C by setting is: (dose: 100.0 mg/kg/injection, schedule: Q01DX001 (ip), vehicle: Klucel (hydroxypropylcellulose) (HPC)) 97 % of control; (dose: 200.0 mg/kg/injection, schedule: Q01DX001 (ip), vehicle: Klucel (hydroxypropylcellulose) (HPC)) 114 % of control; (dose: 400.0 mg/kg/injection, schedule: Q01DX001 (ip), vehicle: Klucel (hydroxypropylcellulose) (HPC)) 97 % of control.

Consider `C(=C1c2ccccc2-c2ccccc21)c1ccccc1`, for which the T/C by setting is: under setting [10], 100 % of control; (dose: 100.0 mg/kg/injection, schedule: Q04DX003 (ip), vehicle: saline with Tween-80) 100 % of control; under setting [11], 95 % of control; (dose: 200.0 mg/kg/injection, schedule: Q04DX003 (ip), vehicle: saline with Tween-80) 100 % of control; under setting [12], 91 % of control; (dose: 400.0 mg/kg/injection, schedule: Q04DX003 (ip), vehicle: saline with Tween-80) 92 % of control.

`C=CCNC(=O)c1ccc(C(=O)NCC=C)cc1`: the T/C by setting is: under setting [13], 102 % of control; under setting [14], 102 % of control; under setting [15], 98 % of control.

As to `CCOc1ccc2nc(S(N)(=O)=O)sc2c1`, the T/C runs as follows: (dose: 100.0 mg/kg/injection, schedule: Q01DX Z (ip), vehicle: saline) 100 % of control; (dose: 200.0 mg/kg/injection, schedule: Q01DX Z (ip), vehicle: saline) 97 % of control; (dose: 400.0 mg/kg/injection, schedule: Q01DX Z (ip), vehicle: saline) 111 % of control.

As to `COC1=C(Nc2cccc(C)c2C)C(=O)C(OC)=C(Nc2cccc(C)c2C)C1=O`, the T/C is 97 % of control under setting [16]; 103 % of control under setting [13]; 111 % of control under setting [4]; 98 % of control under setting [5]; 115 % of control under setting [14]; 96 % of control under setting [6]. Further, the T/C reads like this: under setting [7], 91 % of control; under setting [15], 103 % of control; under setting [8], 90 % of control; under setting [9], 91 % of control.

With `OCc1cc2ccccc2c2ccccc12`, the T/C is, setting by setting: (dose: 222.0 mg/kg/injection, schedule: Q01DX Z (ip), vehicle: carboxymethylcellulose (CMC)) 96 % of control; (dose: 330.0 mg/kg/injection, schedule: Q01DX Z (ip), vehicle: carboxymethylcellulose (CMC)) 90 % of control; (dose: 500.0 mg/kg/injection, schedule: Q01DX Z (ip), vehicle: carboxymethylcellulose (CMC)) 93 % of control; (dose: 750.0 mg/kg/injection, schedule: Q01DX Z (ip), vehicle: carboxymethylcellulose (CMC)) 88 % of control.

Take `COc1cc2cccccc-2cc1=O`: the T/C by setting is: (dose: 50.0 mg/kg/injection, schedule: Q01DX009 (ip), vehicle: other) 104 % of control; (dose: 100.0 mg/kg/injection, schedule: Q01DX009 (ip), vehicle: other) 89 % of control; under setting [1], 103 % of control; (dose: 200.0 mg/kg/injection, schedule: Q01DX009 (ip), vehicle: other) 101 % of control; under setting [2], 97 % of control; under setting [3], 103 % of control.

In the case of `Cc1cccc(Nc2n[nH]c(=S)s2)c1`, the T/C was 93 % of control under setting [17]; 98 % of control under setting [18]; 87 % of control (dose: 400.0 mg/kg/injection, schedule: Q01DX009 (ip), vehicle: Klucel (hydroxypropylcellulose) (HPC)).

For `Cc1ccccc1NP1(=O)OCCCN1Cc1ccc(Cl)cc1` (stereo unspecified), the T/C is, setting by setting: under setting [16], 106 % of control; under setting [13], 102 % of control; under setting [14], 106 % of control; under setting [15], 100 % of control.

Take `CCn1c2ccccc2c2cc(NC(=O)N(CCCl)N=O)ccc21`: the T/C reads like this: (dose: 177.0 mg/kg/injection, schedule: Q01DX009 (ip), vehicle: carboxymethylcellulose (CMC)) 121 % of control; (dose: 266.0 mg/kg/injection, schedule: Q01DX009 (ip), vehicle: carboxymethylcellulose (CMC)) 188 % of control.

In the case of `O=C(CN1CC1)NCc1ccc(CNC(=O)CN2CC2)cc1`, the T/C was 111 % of control (dose: 1.5 mg/kg/injection, schedule: Q01DX009 (ip), vehicle: carboxymethylcellulose (CMC)); 106 % of control (dose: 6.0 mg/kg/injection, schedule: Q01DX009 (ip), vehicle: carboxymethylcellulose (CMC)); 118 % of control (dose: 6.25 mg/kg/injection, schedule: Q01DX009 (ip), vehicle: carboxymethylcellulose (CMC)); 115 % of control (dose: 7.3 mg/kg/injection, schedule: Q01DX001 (ip), vehicle: carboxymethylcellulose (CMC)); 121 % of control (dose: 11.0 mg/kg/injection, schedule: Q01DX001 (ip), vehicle: carboxymethylcellulose (CMC)); 158 % of control (dose: 11.1 mg/kg/injection, schedule: Q01DX009 (ip), vehicle: carboxymethylcellulose (CMC)). Moreover, the T/C reads like this: (dose: 12.5 mg/kg/injection, schedule: Q01DX009 (ip), vehicle: carboxymethylcellulose (CMC)) 183 % of control; (dose: 16.6 mg/kg/injection, schedule: Q01DX009 (ip), vehicle: carboxymethylcellulose (CMC)) 163 % of control; (dose: 25.0 mg/kg/injection, schedule: Q01DX009 (ip), vehicle: carboxymethylcellulose (CMC)) 153 % of control and 183 % of control; (dose: 37.5 mg/kg/injection, schedule: Q01DX001 (ip), vehicle: carboxymethylcellulose (CMC)) 155 % of control.

In the case of `Cc1ccccc1N1OS(=O)(=O)CC1(C#N)c1ccccc1` (stereo unspecified), the T/C under setting [10] was 98 % of control, the T/C under setting [11] was 102 % of control and the T/C under setting [12] is 96 % of control.

`O=C(NCc1ccc(Cl)cc1)NC1CCCCC1`: the T/C (dose: 100.0 mg/kg/injection, schedule: Q04DX002 (ip), vehicle: Klucel (hydroxypropylcellulose) (HPC)) was 100 % of control; the T/C (dose: 200.0 mg/kg/injection, schedule: Q04DX002 (ip), vehicle: Klucel (hydroxypropylcellulose) (HPC)) is 100 % of control; the T/C (dose: 400.0 mg/kg/injection, schedule: Q04DX002 (ip), vehicle: Klucel (hydroxypropylcellulose) (HPC)) was 106 % of control.

In the case of `O=S(=O)(NOCCCCONS(=O)(=O)c1ccccc1)c1ccccc1`, the T/C by setting is: (dose: 100.0 mg/kg/injection, schedule: Q01DX001 (ip), vehicle: saline with Tween-80) 88 % of control; (dose: 200.0 mg/kg/injection, schedule: Q01DX001 (ip), vehicle: saline with Tween-80) 95 % of control; (dose: 400.0 mg/kg/injection, schedule: Q01DX001 (ip), vehicle: saline with Tween-80) 97 % of control.

On to `Cc1ccc(N)cc1Cl`, for which the T/C (dose: 100.0 mg/kg/injection, schedule: Q04DX003 (ip), vehicle: alcohol) was 97 % of control; the T/C (dose: 200.0 mg/kg/injection, schedule: Q04DX003 (ip), vehicle: alcohol) is 102 % of control; the T/C (dose: 400.0 mg/kg/injection, schedule: Q04DX003 (ip), vehicle: alcohol) is 88 % of control.

As for `OCC(O)C(O)C(O)C(O)C(c1ccc(F)cc1)c1ccc(F)cc1` (stereo unspecified), the T/C under setting [16] is 98 % of control; the T/C under setting [13] was 106 % of control and 102 % of control; the T/C under setting [14] is 101 % of control; the T/C under setting [15] was 93 % of control.

For `O=Cc1ccc(N2CCCCC2)cc1`, the T/C runs as follows: under setting [17], 100 % of control; under setting [1], 101 % of control; under setting [18], 107 % of control; under setting [2], 95 % of control; under setting [3], 89 % of control.
